US11504371B2, “Quinazolines compound, preparation method therefor and application thereof” (Beijing Normal University, priority 2017, dated 2022)
“Also recorded” adds a separate entry of the source. Where two headings read alike, the source gives them in different places.

What was measured:
[1] = test system: human prostate cancer cell line (DU145); test: MTT assay, tumor cell proliferation inhibition, DU145; type: cell-based; conditions: for IC50: DU145, MTT, 72 h, read-out: Tumor inhibition rate (IC50)
Experimental: (§1) Cell lines to be tested: human hepatoma cell line (HepG2), human lung cancer cell line (A549), human prostate cancer cell line (DU145), human breast cancer cell line (MCF-7), human neuroblastoma cell line (SH-SY5Y), human gastric mucosal cell line (Ges-1) and human embryonic lung fibroblast cell line (CCC-HPF-1) (the cells to be tested were purchased from the Cancer Hospital of Chinese Academy of Medical Sciences).
(§2) The cells in logarithmic growth phase were treated to prepare a single cell suspension, with the cell density adjusted, which was seeded in a 96-well cell culture plate. About 2×10^3 cells were contained in 100 μL per well, and cultured in a cell incubator at 37° C., 5% CO2, and saturated humidity for 24 h. The used medium was aspirated and abandoned, and then 100 μL of the target compound in different concentrations (0.1 μM-100 μM) were added for drug treatment. Five duplicate wells were prepared for each concentration. The background blank well, negative control well and positive control well were also prepared. All the wells were placed in a cell culture incubator at 37° C., 5% CO2, saturated humidity for another 72 h. Then, each well was added with 10 μL of MTT solution (5 mg/mL) and incubated for another 4 h. After that, each well was added with 100 μL of 10% SDS-0.1% NH4Cl (10% SDS purchased from Beijing Mengyimei Biotechnology Co., Ltd.) solution, and incubated at 37° C. for 10 h in the dark. Then, the absorbance OD was measured at 570 nm using a microplate reader at a reference wavelength of 650 nm. Cell proliferation inhibition was calculated according to the following formula: % inhibition=(ODcontrol−ODtreat)(ODcontrol−ODblank)×100. […] Each group was performed at least three times in parallel.

[2] = test system: human breast cancer cell line (MCF-7); test: MTT assay, tumor cell proliferation inhibition, MCF-7; type: cell-based; conditions: MCF-7, MTT, 72 h, read-out: Tumor inhibition rate (IC50)
Experimental: as §1, §2

[3] = test system: human lung cancer cell line (A549); test: MTT assay, tumor cell proliferation inhibition, A549; type: cell-based; conditions: A549, MTT, 72 h, read-out: Tumor inhibition rate (IC50)
Experimental: as §1, §2

[4] = test system: human neuroblastoma cell line (SH-SY5Y); test: MTT assay, tumor cell proliferation inhibition, SH-SY5Y; type: cell-based; conditions: SH-SY5Y, 72 h, read-out: Tumor inhibition rate (IC50)
Experimental: as §1, §2

[5] = test system: human hepatoma cell line (HepG2); test: MTT assay, tumor cell proliferation inhibition, HepG2; type: cell-based; conditions: 72 h, read-out: Tumor inhibition rate (IC50)
Experimental: as §1, §2

[6] = test system: DU145 cancer cells; test: Nude mice bearing DU145 cancer cells; type: in vivo; conditions: for tumor growth: FIG. 3
Experimental: (§3) In the present invention, the antitumor activity was evaluated by intraperitoneal injection to nude mice bearing different tumors, for compounds 3 (N-(4-((4-nitrophenyl)methoxy)phenyl)-6,7-(benzo-9-crown-3)-4-quinazolinamine) and 23 (compounds No. are shown in Table 1) (N-(3-((4-trifluoromethylphenyl)methoxy)phenyl)-6,7-(benzo-12-crown-4)-4-quinazolinamine) of formula (I).
Firstly, a tumor-bearing nude mouse model was established. 0.2-1 mL of cell suspension was inoculated subcutaneously into the left lower limb of nude mice, and the drug was administered when the tumor volume reached about 100 mm^3. Then, grouping and administration were performed; the nude mice (5 mice in each group) were randomly divided into several groups, such as ultra-pure water control group (blank), positive drug control group, and different dosage treatment groups. […] The nude mice were weighted every other day during the administration. Tumor volumes were measured and calculated. Then tumor growth curve, tumor inhibition curve (see FIGS. 1 and 3) and weight change curve (see FIGS. 2 and 4) were drawn. […]. Among those, docetaxel suffers from high cumulative neurotoxic toxicity and drug resistance although it has the best effect. Comparing to docetaxel, compound 23 has a much lower toxicity and drug resistance, and thus has a great development prospect. […]

[7] = test system: tumor cell strains HepG2, A549, MCF-7, DU145 and SH-SY5Y; test: MTT assay, summary over the five tumor cell lines; type: cell-based, human; conditions: HepG2, A549, MCF-7, DU145, SH-SY5Y
Experimental: as §1
The cells in logarithmic growth phase were treated to prepare a single cell suspension, with the cell density adjusted, which was seeded in a 96-well cell culture plate. About 2×10^3 cells were contained in 100 μL per well, and cultured in a cell incubator at 37° C., 5% CO2, and saturated humidity for 24 h. The used medium was aspirated and abandoned, and then 100 μL of the target compound in different concentrations (0.1 μM-100 μM) were added for drug treatment. Five duplicate wells were prepared for each concentration. The background blank well, negative control well and positive control well were also prepared. All the wells were placed in a cell culture incubator at 37° C., 5% CO2, saturated humidity for another 72 h. Then, each well was added with 10 μL of MTT solution (5 mg/mL) and incubated for another 4 h. After that, each well was added with 100 μL of 10% SDS-0.1% NH4Cl (10% SDS purchased from Beijing Mengyimei Biotechnology Co., Ltd.) solution, and incubated at 37° C. for 10 h in the dark. Then, the absorbance OD was measured at 570 nm using a microplate reader at a reference wavelength of 650 nm. Cell proliferation inhibition was calculated according to the following formula: % inhibition=(ODcontrol−ODtreat)(ODcontrol−ODblank)×100. IC50 value, i.e., 50% proliferation inhibition concentration, was calculated by SPSS 16.0 software. Each group was performed at least three times in parallel.
The inhibitory activities of 35 target compounds against tumor cell strains HepG2, A549, MCF-7, DU145 and SH-SY5Y were tested by MTT assay (Table 1). Some compounds with optimal antitumor activity were selected.

[8] = test system: A549 cancer cells; test: Nude mice bearing A549 cancer cells; type: in vivo; conditions: mouse, in vivo
Experimental: as §3
Firstly, a tumor-bearing nude mouse model was established. 0.2-1 mL of cell suspension was inoculated subcutaneously into the left lower limb of nude mice, and the drug was administered when the tumor volume reached about 100 mm^3. Then, grouping and administration were performed; the nude mice (5 mice in each group) were randomly divided into several groups, such as ultra-pure water control group (blank), positive drug control group, and different dosage treatment groups. The nude mice in each group were administered continuously for 40 days. The nude mice were weighted every other day during the administration. Tumor volumes were measured and calculated. Then tumor growth curve, tumor inhibition curve (see FIGS. 1 and 3) and weight change curve (see FIGS. 2 and 4) were drawn. […]. Among those, docetaxel suffers from high cumulative neurotoxic toxicity and drug resistance although it has the best effect. Comparing to docetaxel, compound 23 has a much lower toxicity and drug resistance, and thus has a great development prospect. […]

[9] = test system: HepG2 cancer cells; test: Nude mice bearing HepG2 cancer cells; conditions: for weight loss of nude mice (FIG. 6): 40 mg/Kg, single agent; for tumor growth (tumor volume, FIG. 5): nude mice bearing HepG2, single agent
Experimental: Firstly, a tumor-bearing nude mouse model was established. […] Then, grouping and administration were performed; the nude mice (5 mice in each group) were randomly divided into several groups, such as ultra-pure water control group (blank), positive drug control group, and different dosage treatment groups. The nude mice in each group were administered continuously for 40 days. The nude mice were weighted every other day during the administration. Tumor volumes were measured and calculated.

IC50 ([1]; Homo sapiens, DU-145) [µM]	IC50 ([2]; Homo sapiens, MCF7) [µM]	IC50 ([3]; Homo sapiens) [µM]	IC50 ([4]; Homo sapiens) [µM]	IC50 ([5]; Homo sapiens) [µM]	IC50 [1] [µM]	IC50 [2] [µM]	IC50 [3] [µM]	IC50 [4] [µM]	IC50 [5] [µM]	Compound	further results
85.6	> 100	28.4	> 100	50.2						O=[N+]([O-])c1ccc(COc2ccccc2Nc2ncnc3cc4c(cc23)OCCOCCO4)cc1 [Compound 1, N-(2-((4-nitrophenyl)methoxy)phenyl)-6,7-(benzo-9-crown-3)-4-quinazolinamine]	melting point: 192 to 193 °C
					8.8	12	29.5	5.25	11.9	c1ccc(COc2ccc(Nc3ncnc4cc5c(cc34)OCCOCCOCCOCCO5)cc2)cc1 [Compound 29, N-(4-((phenyl)methoxy)phenyl)-6,7-(benzo-15-crown-5)-4-quinazolinamine]	inhibitory effect on proliferation of the five tumor cells (in words) [7]: good inhibitory effect on proliferation of at least three of the five tumor cells
					> 100	> 100	> 100	> 100	48.1	O=[N+]([O-])c1ccc(COc2ccccc2Nc2ncnc3cc4c(cc23)OCCOCCOCCOCCO4)cc1 [Compound 30, N-(2-((4-nitrophenyl)methoxy)phenyl)-6,7-(benzo-15-crown-5)-4-quinazolinamine]	
13.8	6.41	19.8	8.42	9.82						O=[N+]([O-])c1ccc(COc2cccc(Nc3ncnc4cc5c(cc34)OCCOCCOCCOCCO5)c2)cc1 [Compound 31, N-(3-((4-nitrophenyl)methoxy)phenyl)-6,7-(benzo-15-crown-5)-4-quinazolinamine]	inhibitory effect on proliferation of the five tumor cells (in words) [7]: good inhibitory effect on proliferation of at least three of the five tumor cells; melting point: 136 to 137 °C
					> 100	> 100	> 100	> 100	> 100	O=[N+]([O-])c1ccc(COc2ccc(Nc3ncnc4cc5c(cc34)OCCOCCOCCOCCO5)cc2)cc1 [Compound 32, N-(4-((4-nitrophenyl)methoxy)phenyl)-6,7-(benzo-15-crown-5)-4-quinazolinamine]	
					> 100	28.5	30.7	> 100	> 100	FC(F)(F)c1ccc(COc2ccccc2Nc2ncnc3cc4c(cc23)OCCOCCOCCOCCO4)cc1 [Compound 33, N-(2-((4-trifluoromethylphenyl)methoxy)phenyl)-6,7-(benzo-15-crown-5)-4-quinazolinamine]	
					26.9	8.48	8.52	8.56	5.7	FC(F)(F)c1ccc(COc2cccc(Nc3ncnc4cc5c(cc34)OCCOCCOCCOCCO5)c2)cc1 [Compound 34, N-(3-((4-trifluoromethylphenyl)methoxy)phenyl)-6,7-(benzo-15-crown-5)-4-quinazolinamine]	inhibitory effect on proliferation of the five tumor cells (in words) [7]: good inhibitory effect on proliferation of at least three of the five tumor cells
0.31	> 100	3.52	> 100	> 100						N#Cc1cc(Nc2ncnc3cc4c(cc23)OCCOCCO4)ccc1OCc1cccc(F)c1 [Compound 36, 2-(3-Fluoro-benzyloxy)-5-(7,8,10,11-tetrahydro-6,9,12-trioxa-1,3-diaza-cyclonona[b]naphthalen-4-ylamino)-benzonitrile]	melting point: 220 to 222 °C
										COc1cc2ncnc(Nc3ccc(F)c(Cl)c3)c2cc1OCCCN1CCOCC1 [Gefitinib, reference compound]	toxicity / body weight of nude mice (FIG. 2) [8]: increased
										CNC(=O)c1cc(Oc2ccc(NC(=O)Nc3ccc(Cl)c(C(F)(F)F)c3)c(F)c2)ccn1 [regorafenib]	weight loss of nude mice (FIG. 6) [9]: weight loss of nude mice is similar; tumor growth (tumor volume, FIG. 5) [9]: can slow down the tumor growth with increasing drug dose
										CNC(=O)c1cc(Oc2ccc(NC(=O)Nc3ccc(Cl)c(C(F)(F)F)c3)cc2)ccn1 [sorafenib]	weight loss of nude mice (FIG. 6) [9]: weight loss of nude mice is relatively slow; tumor growth (tumor volume, FIG. 5) [9]: can slow down the tumor growth with increasing drug dose

Compound	IC50 ([1]; Homo sapiens, DU-145) [µM]	IC50 ([2]; Homo sapiens, MCF7) [µM]	IC50 ([3]; Homo sapiens) [µM]	IC50 ([4]; Homo sapiens) [µM]	IC50 ([5]; Homo sapiens) [µM]	IC50 [1] [µM]	IC50 [2] [µM]	IC50 [3] [µM]	IC50 [4] [µM]	IC50 [5] [µM]	further results
FC(F)(F)c1ccc(COc2cccc(Nc3ncnc4cc5c(cc34)OCCOCCOCCO5)c2)cc1 [Compound 23, N-(3-((4-trifluoromethylphenyl)methoxy)phenyl)-6,7-(benzo-12-crown-4)-4-quinazolinamine]	2.76	17.6	24.9	20	34						inhibitory effect on DU145 (in words) ([1]; MTT, summary of Table 1): strong specific inhibitory effect; tumor growth ([6]; 80 mg/Kg): no longer grown almost; body weight compared with blank control ([6]; 80 mg/Kg, after treating for 50 days): even heavier than that of the blank control group; tumor growth ([6]; 160 mg/Kg): no longer grown almost; also recorded: completely inhibited; toxicity ([6]; 160 mg/kg, FIG. 4): no significant toxicity was observed; toxicity / body weight of nude mice (FIG. 4) ([6]; nude mice bearing DU145): very low; antitumor effect (tumor volume, FIG. 3) ([6]; nude mice bearing DU145, intraperitoneal injection, three doses): significant antitumor effect; also recorded: high inhibitory effect
